This is an account of results in patent publication US11548891B1, “Quaternary ammonium salts of phenanthroindolizidine and phenanthroquinolizidine alkaloids as hypoxia-targeted anticancer agents” (BATTERJEE MEDICAL COLLEGE, priority 2022, dated 2023).

One data set concerns H460. Put plainly: Cytotoxicity under normoxia and hypoxia (anaerobic chamber), H460. Type of data set: cell-based, Human. To be noted: for IC50: 4 h exposure. As for the experimental part: (§1) The ability of the designed prodrugs to liberate the active alkaloids in hypoxic tumors was evaluated by testing them under hypoxic conditions using an anaerobic chamber. The three prodrugs 5a-c and their parent alkaloids as well as the reference compounds PR-104A, the parent alcohol form of the phosphate pre-prodrug PR-104, and evofosfamide were tested using the HCT116 and H460 cell lines under both normoxic and hypoxic conditions (Table 5). The prodrugs were much less cytotoxic than the parent drugs, in agreement with the results using the other cell lines described above (see FIG. 6).
(§2) The eight cell lines HEK293 (Human embryonic kidney 293), CHO-Kt (Chinese hamster ovary K1), MCF-7 cells (Human breast adenocarcinoma), HCT116 (human colorectal carcinoma), RKO (Human rectal carcinoma), SW480 (human colorectal carcinoma), H460 (Human lung cancer), and MRCS (Normal human fetal lung fibroblast), were obtained from the ATCC. The cell lines were routinely grown in alpha minimum essential medium (α-MEM) containing 5% fetal calf serum (FCS). The appropriate number of cells (HCT116=400 cells/well, H460 cells=600 cells/well) were seeded into 96-well plates under normoxic or hypoxic conditions. Cells were plated in 100 μL α-MEM containing 10% FCS, 10 mM D-Glucose and 0.2 mM 20-deoxycytidine. After incubation for 2 h, the compounds were added at the appropriate concentration and incubated for further 4 h. The cells were then washed three times with drug-free α-MEM (containing 5% FCS and pen/strep). The plates were then incubated for 5 days under normoxic conditions. The cells were stained with sulphorhodamine B to measure total cells as per the standard procedure described in Skehan, et. al. [Skehan, P., et. al., J. Natl. Cancer Inst., 1990, 82, 1107-1112, incorporated herein by reference in its entirety]. The IC50 was determined by interpolation as the compound concentration reducing staining to 50% of controls on the same plate as per the standard procedure described in Guise, et. al. [Guise, C. P., et. al., Biochem. Pharmacol., 2007, 74, 810-820, incorporated herein by reference in its entirety].

The next data set has as its system MCF7. Put plainly: Cytotoxicity under normoxia (MTT), MCF7. The data set is classed as cell-based, Human. To be noted: Homo sapiens, MCF7, read-out: IC50 MCF7. As for the experimental part: (§3) The cytotoxicity of the compounds 5a-c and their parent alkaloids was evaluated by the 3-[4,5-dimethylthiazole-2-yl]-2,5-diphenyltetrazolium bromide (MTT) assay against 5 cancerous and 2 non-cancerous cell lines (Table 4).
as §2

In a further data set the test system is MRC5. Put plainly: Cytotoxicity under normoxia (MTT), MRC5. Type of data set: cell-based, human. To be noted: Homo sapiens, MRC5, read-out: IC50 MRC5. As for the experimental part:
as §3, §2

In a further data set the test system is RKO. Put plainly: Cytotoxicity under normoxia (MTT), RKO. Type of data set: cell-based, Human. To be noted: Homo sapiens, RKO, read-out: IC50 RKO. On the procedure: as §3, §2
For data set [1], the system named is HCT116. The data set is described as follows: Cytotoxicity under normoxia (MTT), HCT116. The data set is classed as cell-based, human. To be noted: Homo sapiens, HCT-116, read-out: IC50 HCT116. As for the experimental part: as §3, §2
In data set [2] the test system is HCT116. The data set is described as follows: Cytotoxicity under normoxia and hypoxia (anaerobic chamber), HCT116. Type of data set: cell-based, human. To be noted: for IC50: 4 h exposure. On the procedure:
as §1, §2

A further data set concerns SW480. The data set is described as follows: Cytotoxicity under normoxia (MTT), SW480. Type of data set: cell-based, human. To be noted: Homo sapiens, SW480, read-out: IC50 SW480. On the procedure:
as §3, §2

The nature of another data set: LogD. Type of data set: physicochemical. As for the experimental part:
(§4) Water solubility, log D, and PAMPA-BBB were evaluated using the protocols as described in Omran, et. al. [Omran, Z., et. al., Chem. Pharm. Bull., 2019, 67, 1208-1210, incorporated herein by reference in its entirety].

A further data set is described as follows: PBS (pH 7.4) solubility. Type of data set: physicochemical. As for the experimental part: as §4
The nature of data set [3]: BBB-Parallel Artificial Membrane Permeability Assay (BBB-PAMPA). Type of data set: in vitro ADME. As for the experimental part: The physicochemical properties of the new compounds were evaluated (Table 1). […] Consequently, these derivatives lost their BBB penetrability, as predicted by the BBB-Parallel Artificial Membrane Permeability Assay (BBB-PAMPA), whereas their parent alkaloids had free passage through the BBB.
as §4
Background: PAMPA measures passive passage across an artificial lipid membrane.

Setting [4] is: Homo sapiens, NCI-H460, H460, hypoxia, read-out: IC50 (Hypoxia).
Setting [5] is: Homo sapiens, NCI-H460, H460, normoxia, read-out: IC50 (Normoxia).
The mark [6] stands for this setting: Homo sapiens, HCT-116, HTC 116, hypoxia, read-out: IC50 (Hypoxia).
The mark [7] stands for this setting: Homo sapiens, HCT-116, HTC 116, normoxia, read-out: IC50 (Normoxia).

Molecules are shown by their SMILES. Read-outs that look alike come from different tables or passages of the source.

As a reminder, the IC50 is the concentration that inhibits the measured activity by half. A word on the melting point: it is the temperature of the solid-liquid transition. As to `COc1cc2c3c(c4cc(OC)c(OC)cc4c2cc1OC)C[N+]1(Cc2c([N+](=O)[O-])ncn2C)CCC[C@@H]1C3.[Br-]` (stereo partly drawn) [Compound 5c, (13aR)-2,3,6,7-tetramethoxy-10-((1-methyl-4-nitro-1H-imidazol-5-yl)methyl)-10,11,12,13,13a, 14-hexahydro-9H-dibenzo[f,h]pyrrolo[1,2-b]isoquinolin-10-ium bromide], the melting point lay in the range of 185 to 187 °C. Moreover, in the data set on H460, the “HCR (Hypoxia Cytotoxicity Ratio = normoxic IC50/hypoxic IC50)” value stood at 7.8. Also, the “DR (Deactivation Ratio = IC50 (prodrug)/IC50 (parent drug))” value in the data set with H460 (H460, normoxia) amounted to 293. Further, in the data set on H460 (setting [4]), the IC50 amounted to 6.5 µM. The IC50 with H460 (setting [5]) worked out at 51 µM. Also, in the data set on MCF7, the IC50 was determined as 8.05 ± 0.343 µM. In the data set with MRC5, the IC50 came to 3.94 ± 0.127 µM. The IC50 in the data set with RKO stood at 8.82 ± 3.08 µM. The IC50 with HCT116 [1] was 9.02 ± 1.13 µM. Besides, the “HCR (Hypoxia Cytotoxicity Ratio = normoxic IC50/hypoxic IC50)” value with HCT116 [2] is given as 1.5. Moreover, the “DR (Deactivation Ratio = IC50 (prodrug)/IC50 (parent drug))” value with HCT116 [2] (HTC 116, normoxia) is 128. Besides, the IC50 in the data set with HCT116 [2] (setting [6]) was found to be 3.02 µM. Further, in the data set with HCT116 [2] (setting [7]), the IC50 was 9.05 µM. For the same compound, the IC50 in the data set with SW480 stood at 9.86 ± 1.69 µM.

As for `Cn1c(COP(=O)(NCCBr)NCCBr)cnc1[N+](=O)[O-]` [Evofosfamide, evofosfamide], the results for the “HCR (Hypoxia Cytotoxicity Ratio = normoxic IC50/hypoxic IC50)” value in the data set on H460 (H460) and in the data set on HCT116 [2] (HTC 116) were 251 and 85, respectively. In addition, the IC50 with H460 (setting [4]) was 0.0172 µM; in the data set on H460 (setting [5]), 4.32 µM; in the data set with HCT116 [2] (setting [6]), 0.0201 µM; in the data set with HCT116 [2] (setting [7]), 0.0239 µM.

As to `COC(=O)Nc1nc2ccc(C(=O)c3ccccc3)cc2[nH]1` [Mebendazole], the “LogD Mean ± SE” value in the data set “LogD” is 3.26 ± 0.01.

For the compound `Cc1nccn1CC1CCc2c(c3ccccc3n2C)C1=O` (centres unmarked) [Ondansetron], the “PBS (pH 7.4) Solubility μM Mean ± SE” value in the data set “PBS (pH 7.4) solubility” was found to be 96 ± 3 μM.

With `CS(=O)(=O)OCCN(CCBr)c1c(C(=O)NCCO)cc([N+](=O)[O-])cc1[N+](=O)[O-]` [PR-104A], the “HCR (Hypoxia Cytotoxicity Ratio = normoxic IC50/hypoxic IC50)” value is given as 2.5 with H460 (H460) and 10.5 in the data set on HCT116 [2] (HTC 116). In addition, the IC50 with H460 (H460, hypoxia, read-out: IC50 (Hypoxia)) came to 0.533 µM; in the data set with H460 (H460, normoxia, read-out: IC50 (Normoxia)), 1.34 µM; with HCT116 [2] (HTC 116, hypoxia, read-out: IC50 (Hypoxia)) it was 0.861 µM; in the data set on HCT116 [2] (HTC 116, normoxia, read-out: IC50 (Normoxia)), 16.5 µM.

`CNC(=C[N+](=O)[O-])NCCSCc1ccc(CN(C)C)o1` [Ranitidine]: in data set [3], the “Permeability (Papp) Log [10^−6 cm/s] Mean ± SE” value is <−7 Log [10^−6 cm/s].
